{
  "source": "patent US20240239787A1",
  "about": "“COMPOUNDS FOR USE IN THE TREATMENT OF CANCER” (Nanyang Technological University, priority 2021, published 2024)",
  "key": {"[1]": {"tested_on": "HIF-1α", "assay": "HIF-1α level in hypoxic Hela cells (immunofluorescence imaging, Western blot)", "type": "cell-based, human", "method": "(§1) HeLa, Hek293T, MDA-MB-231, 4T1 or B16F10 cells (1.5×10^6 cells/mL) were treated with J266 (10 μM) for 6 h before incubating with JQ1-CBT at the indicated concentrations and time. This entire incubation was performed in normoxia condition. For NTR-moiety caged JW4, the cells were treated with JW4 (10 μM) 6 h prior to the addition of JQ1-CBT for a subsequent 12 h, and was performed entirely under hypoxic condition. Comparison of the downstream effect between the controls and drug-treated cells were completely executed in hypoxic condition. To work up, the cells were washed with cold PBS (pH 7.4) twice, and lysed with RIPA buffer supplemented with protease inhibitor cocktail and phosphatase inhibitor cocktail for 10 min at 4° C. Then, the lysed cells were collected and centrifuged at 13,500 rpm for 20 min at 4° C. The supernatant was collected and the protein concentration was analyzed by NanoDrop™ 2000/2000c Spectrophotometers. The lysate volumes were fine-tuned and loaded onto a Mini-PROTEAN® TGX™ 4-20% Precast Gel and was separated by SDS-PAGE. Then, the gel was transferred onto a PVDF membrane (100 V, 90 min, 4° C.), washed with TBS-T twice, and blocked with 1% BSA for 1 h at r.t. Next, the membrane was incubated with primary antibody overnight at 4° C., washed thrice with TBS-T, followed by incubation with goat anti-rabbit IgG (H+L) Secondary Antibody, HRP for 1 h. The membrane was supplemented with Radiance Q chemiluminescent ECL substrate and visualized using Amersham™ ImageQuant™ 800 biomolecular imager. B-Tubulin was used as the internal control.\nHela cells were plated at a density of 8×10^4 cells/mL in each well of the eight-well ibidi dishes before experiment. To sustain the hypoxia-induced factor throughout the drug treatment process, drug incubation was performed entirely in hypoxic chamber. […] The fluorescence of the alleviated HIF-1α expression upon drug treatment was visualized with Carl Zeiss LSM 800 microscopes (Hoechst 33258: Ex=405 nm, Em=460/50 nm; Alexa Fluor 488: Ex=488 nm, Em=515/30 nm; Alexa Fluor 594: Ex=561 nm, Em=617/20 nm)."}, "[2]": {"tested_on": "CA9", "assay": "CA9 level in hypoxic Hela cells (Western blot)", "type": "cell-based, human", "method": "as §1, with “The membrane was supplemented with Radiance Q chemiluminescent ECL substrate and visualized using Amersham™ ImageQuant™ 800 biomolecular imager. B-Tubulin was used as the internal control.” left out"}, "[3]": {"tested_on": "zebrafish larvae", "assay": "Vascularization of vhl mutant and wide type zebrafish larvae (confocal imaging)", "type": "in vivo", "settings": "vhl^hu2117 crosses, 10 μM; non-treatment approximately one quarter", "experimental": "Vasculature zebrafishes were obtained from natural crosses of the AB wild-type strain or vhl^+/hu2117 carriers on the fli1a:egfp^y1 transgenic background (which fluorescently marks the vasculature). JW4 and JQ1-CBT were dissolved in DMSO and the mixture was applied to embryos at equimolar concentration of 10 μM, with J252 (10 μM) and JQ1 (10 μM) used for the control experiments. […] The vascular plexus was imaged on a Zeiss LSM800 confocal microscope. Green: blood vessel tracker, .ex: 488 nm, .em: 520/30 nm; red: . ex: 564 nm, .em: 610/30 nm."}, "[4]": {"biological_target": "T1, BRD4 (Mus musculus, UniProt Q9ESU6)", "T1 construct": "from tissue; host or cells: B16F10 tumour in C57BL/6J mice, tumour lysate", "assay": "BRD4 level in B16F10 tumour lysates of mice (Western blot)", "type": "in vivo", "settings": "intratumoral 5 mg/kg every 4 h up to 8 h", "text": "We further investigated the feasibility of tumour microenvironment-activatable epigenetic BRD4 protein degradation and further validated the potential anti-tumour efficacy of ENCTAC in a C57BL/6J mice model. Typically, we implanted B16F10 mouse melanoma cell line into the right flank of living mice and the solid tumour was monitored to grow until palpable size before undergoing targeted protein disruption and therapeutic studies (FIG. 24a). The living mice bearing tumours were first subject to NTR-Cy7, a reported NTR enzyme responsive probe molecule (Li, Y. et al., J. Am. Chem. Soc. 2015, 137, 6407-[…]), followed by animal imaging scanning.\n(§2) B16F10 cells at a density of 2×10^6 cells were injected subcutaneously into the right flank of six- to eight-week-old mice. Once the tumours became palpable, intratumoral injection of the buffer solution as vehicle, JQ1, and JW4 and JQ1-CBT at dosage of 5 mg/kg were performed for every 4 h up to 8 h. The mice were sacrificed and protein extraction were carried out. The protein levels in lysis samples were analysed by western blot by following the protocol in Example 12. Histology and immunofluorescence staining were performed by following the protocol in Example 13. […] Images were captured using the EVOS M5000 imaging system (Thermo Fischer Scientific, Waltham, MA, USA) and quantified using ImageJ."}, "[5]": {"tested_on": "HIF-1α", "assay": "HIF-1α level in B16F10 tumour lysates of mice (Western blot)", "type": "in vivo, mouse", "settings": "intratumoral 5 mg/kg every 4 h up to 8 h", "method": "as §2, with “13. Specifically, the resected tumours were fixed in 4% paraformaldehyde for 48 h, washed with PBS, and gradually transferred to 15% sucrose, followed by 30% sucrose before being embedded in O.C.T. compound. Five-micrometre cryosections of the tumour samples were dehydrated and blocked with a blocking buffer containing 2% BSA, 1% Tween 20, 3% Triton X, and horse serum for an hour before being incubated with primary antibodies, followed by a washing step and then incubation with secondary antibodies. The primary antibodies used were Ki67 and CD31.” for “13.”"}, "[6]": {"tested_on": "c-Myc", "assay": "c-Myc level in B16F10 tumour lysates of mice (Western blot)", "type": "in vivo, mouse", "settings": "intratumoral 5 mg/kg every 4 h up to 8 h", "method": "as §2, with “13. Specifically, the resected tumours were fixed in 4% paraformaldehyde for 48 h, washed with PBS, and gradually transferred to 15% sucrose, followed by 30% sucrose before being embedded in O.C.T. compound. Five-micrometre cryosections of the tumour samples were dehydrated and blocked with a blocking buffer containing 2% BSA, 1% Tween 20, 3% Triton X, and horse serum for an hour before being incubated with primary antibodies, followed by a washing step and then incubation with secondary antibodies. The primary antibodies used were Ki67 and CD31.” for “13.”"}, "[7]": {"tested_on": "B16F10 mouse melanoma", "assay": "Antitumour efficacy in B16F10 tumour bearing C57BL/6J mice", "type": "in vivo", "settings": "daily treatment, 5 days, vs vehicle"}},
  "data": [
    {"smiles": "Cc1sc2c(c1C)C(c1ccc(Cl)cc1)=N[C@@H](CC(=O)OC(C)(C)C)c1nnc(C)n1-2", "note": "[JQ1]", "values": [
      {"measurement": "HIF-1α protein level", "setting": "[1]", "result": "did not alter"},
      {"measurement": "CA9 amount", "setting": "[2]", "result": "partially downgrade"},
      {"measurement": "vascularized larvae", "setting": "[3]", "result": 21.3, "unit": "%"},
      {"measurement": "BRD4 protein level in tumour", "setting": "[4]", "result": "trivial effect"},
      {"measurement": "HIF-1α protein level in tumour", "setting": "[5]", "result": "trivial effect"},
      {"measurement": "c-Myc expression in tumour", "setting": "[6]", "result": "downgrade c-Myc expression"},
      {"measurement": "tumour progression (serial volumetric measurement)", "setting": "[7]", "result": "reduced tumour growth"}
    ]}
  ]
}
